This is an account of results in ChEMBL document CHEMBL1201862, “PubChem BioAssay data set” (2004).

Where “and” joins values, the source holds several entries; their conditions need not be identical. Equal entries are not always repeated.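 A five-concentration, 48-hour dose response in 96-well plates underlies each endpoint, interpolated linearly between surrounding concentrations. Here, GI50 denotes the concentration required for 50% inhibition of growth.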 Calls of active or inactive are those of the source. No stated cut-off is given here; in the data, active = GI50 up to about 1.1 µM and inactive = higher. Some results are limits rather than exact numbers.

Test systems include COLO 205; U-251; SF-539; OVCAR-8; MCF7; SF-268; SK-OV-3; NCI/ADR-RES; HOP-92; Hs-578T; IGROV-1; NCI-H460; A549; KM12; UACC-257; NCI-H226; CAKI-1; DU-145; MDA-N; LOX IMVI.
Test in all cases: NCI-60 cell line screen, 48 h

For the molecule `CC1(C)COCN1COC1CCCCC1`, the GI50 with COLO 205, in the assay with U-251, in the assay on SF-539, in the assay with OVCAR-8, in the assay on MCF7 and in the assay with SF-268 was > 100 µM (inactive) throughout. Also, the GI50 with SK-OV-3, in the assay with NCI/ADR-RES, with HOP-92, in the assay on Hs-578T, in the assay with IGROV-1 and with NCI-H460 was > 100 µM (inactive) each time. The GI50 with A549, in the assay with KM12, in the assay on UACC-257, in the assay with NCI-H226, in the assay on CAKI-1 and with DU-145 was > 100 µM (inactive) throughout. Further, in the assay with MDA-N, the GI50 is > 100 µM (inactive).

Take `O=C1/C(=C/c2ccc(O)c(CN3CCCCC3)c2)CCC/C1=C\c1ccc(O)c(CN2CCCCC2)c1`: the GI50 is 7.74 µM (inactive) in the assay on LOX IMVI; 2.55 µM (inactive) in the assay on COLO 205; 5.22 µM (inactive) in the assay with U-251; 4.48 µM (inactive) with OVCAR-8; 3.26 µM (inactive) with MCF7; 3.52 µM (inactive) in the assay on SF-268. In addition, the GI50 is 8.53 µM (inactive) in the assay on SK-OV-3; 2.89 µM (inactive) in the assay with NCI/ADR-RES; 4.26 µM (inactive) with HOP-92; 8.24 µM (inactive) in the assay with Hs-578T; 5.75 µM (inactive) in the assay with IGROV-1; 3.05 µM (inactive) in the assay with NCI-H460. The GI50 with A549 was 16.7 µM (inactive); with KM12 it was 4.12 µM (inactive); with UACC-257, 10.6 µM (inactive); with NCI-H226 it was 15.5 µM (inactive); with CAKI-1 it was 18.8 µM (inactive); in the assay on DU-145, 4.4 µM (inactive). Besides, the GI50 with MDA-N is 4.66 µM (inactive).

`C/C(=N\Nc1nc2cccnc2s1)c1ccccn1`: the GI50 with COLO 205 is < 0.01 µM (active); in the assay with U-251, < 0.0189 µM (active); with SF-539, 0.124 µM (active); in the assay on OVCAR-8 it was < 0.01 µM (active); in the assay with MCF7, 0.0136 µM (active); in the assay with SF-268, 0.0284 µM (active). The GI50 in the assay on SK-OV-3 was 0.0902 µM (active); in the assay with NCI/ADR-RES it was < 0.01 µM (active); in the assay on HOP-92, 0.37 µM (active); with Hs-578T, 0.436 µM (active); in the assay with IGROV-1, < 0.0141 µM (active); with NCI-H460 it was 0.0369 µM (active). Besides, the GI50 was 0.245 µM (active) with A549; 0.273 µM (active) in the assay with KM12; < 0.01 µM (active) in the assay with UACC-257; < 0.0155 µM (active) with NCI-H226; < 0.0105 µM (active) in the assay on CAKI-1; 0.316 µM (active) in the assay with DU-145. Besides, the GI50 in the assay with MDA-N was 1.81 µM (inactive).

On to `CC(=O)O[C@H]1[C@H](OC(C)=O)[C@@H](CN=[N+]=[N-])OCO[C@@H]1CN=[N+]=[N-]`, for which the GI50 in the assay with LOX IMVI, in the assay with COLO 205, with U-251, in the assay on SF-539, in the assay with OVCAR-8 and in the assay with MCF7 was > 100 µM (inactive) throughout. The GI50 in the assay on SF-268 was > 100 µM (inactive); with SK-OV-3, > 100 µM (inactive); with NCI/ADR-RES it was > 100 µM (inactive); with HOP-92, > 100 µM (inactive); in the assay with Hs-578T, < 0.01 µM (active); with IGROV-1, > 100 µM (inactive). Further, the GI50 in the assay on NCI-H460, in the assay on A549, with KM12, in the assay with UACC-257, in the assay with NCI-H226 and with DU-145 was > 100 µM (inactive) in each case. For the same molecule, the GI50 in the assay on MDA-N is > 100 µM (inactive).

In the case of `COc1ccc(/C=N\N(C)Cc2cccc3ccsc23)cc1`, the GI50 in the assay with LOX IMVI, with COLO 205, in the assay on U-251, in the assay on OVCAR-8, in the assay on MCF7 and in the assay on SF-268 was > 100 µM (inactive) each time. The GI50 in the assay with SK-OV-3, with NCI/ADR-RES, in the assay on HOP-92, with Hs-578T, with IGROV-1 and with NCI-H460 was > 100 µM (inactive) in each case. Also, the GI50 is > 100 µM (inactive) in the assay with A549; > 100 µM (inactive) in the assay with KM12; 48.9 µM (inactive) in the assay on UACC-257; > 100 µM (inactive) with NCI-H226; > 100 µM (inactive) in the assay with CAKI-1; > 100 µM (inactive) in the assay with DU-145. The GI50 in the assay with MDA-N is 70.6 µM (inactive).

With `COc1ccc(OC)c(/C=C/[N+](=O)[O-])c1`, the GI50 was 1.84 µM (inactive) and 948 nM (active) with LOX IMVI; 2.04 µM (inactive) and 3.15 µM (inactive) in the assay on COLO 205; 2.56 µM (inactive) and 3.76 µM (inactive) with U-251; 3.6 µM (inactive) and 2.89 µM (inactive) with SF-539; 5.6 µM (inactive) and 4.23 µM (inactive) in the assay with OVCAR-8; 2.32 µM (inactive) with MCF7. Moreover, the GI50 was 3.01 µM (inactive) and 4.54 µM (inactive) with SF-268; 5.53 µM (inactive) and 4.7 µM (inactive) with SK-OV-3; 2.96 µM (inactive) in the assay with NCI/ADR-RES; 4.35 µM (inactive) and 3.05 µM (inactive) in the assay with HOP-92; 4 µM (inactive) in the assay on Hs-578T; 3.24 µM (inactive) and 5.48 µM (inactive) in the assay with NCI-H460. For the same molecule, the GI50 in the assay with A549 was 3.24 µM (inactive) and 5.79 µM (inactive); in the assay on UACC-257, 4.1 µM (inactive) and 3.92 µM (inactive); with CAKI-1 it was 2.85 µM (inactive) and 2.45 µM (inactive); in the assay with DU-145, 3.33 µM (inactive) and 3.03 µM (inactive); with MDA-N, 3.16 µM (inactive).

In the case of `Brc1cccc(Nc2ncnc3sc4c(c23)CCC2(C4)OCCO2)c1`, the GI50 with LOX IMVI was 18.6 µM (inactive); in the assay with COLO 205, 18 µM (inactive); in the assay with U-251, 35.6 µM (inactive); in the assay on OVCAR-8 it was 24.5 µM (inactive); in the assay on MCF7 it was 28.3 µM (inactive); in the assay on SF-268, 27.6 µM (inactive). Further, the GI50 with SK-OV-3 was 32.1 µM (inactive); with NCI/ADR-RES it was 22.3 µM (inactive); in the assay on HOP-92, 10.7 µM (inactive); in the assay on Hs-578T, 28.4 µM (inactive); with IGROV-1, 8.73 µM (inactive); in the assay with NCI-H460 it was 33.3 µM (inactive). In addition, the GI50 is 80 µM (inactive) in the assay on A549; 24 µM (inactive) in the assay on KM12; 26.7 µM (inactive) with UACC-257; 18.6 µM (inactive) with NCI-H226; 10.5 µM (inactive) in the assay with CAKI-1; 7.28 µM (inactive) in the assay with DU-145. Besides, the GI50 in the assay on MDA-N is 33.6 µM (inactive).

As for `O=C1C=CC(=O)C(N(CCO)CCO)=C1.O=C1C=CC2(O)OCCN(CCO)C2=C1`, the GI50 in the assay with LOX IMVI, with COLO 205, in the assay on U-251, in the assay on OVCAR-8, in the assay with MCF7 and with SF-268 was > 100 µM (inactive) each time. In addition, the GI50 in the assay on SK-OV-3, in the assay on NCI/ADR-RES, in the assay with HOP-92, with Hs-578T, in the assay with IGROV-1 and in the assay on NCI-H460 was > 100 µM (inactive) in each case. In addition, the GI50 in the assay on A549, in the assay with KM12, in the assay on UACC-257, in the assay on NCI-H226, in the assay with CAKI-1 and in the assay on DU-145 was > 100 µM (inactive) each time. In addition, the GI50 in the assay with MDA-N was > 100 µM (inactive).

With `COc1c(O)cc(/C=C/c2cc(O)cc3c2[C@@]2(C(=O)O3)c3c(O)cc(O)cc3OC2c2cccc(O)c2)cc1O` (stereo partly specified), the GI50 with LOX IMVI was 43.7 µM (inactive); in the assay with COLO 205, 41.2 µM (inactive); in the assay with U-251 it was 41.4 µM (inactive); with SF-539 it was 39.4 µM (inactive); with OVCAR-8, 23.7 µM (inactive); in the assay with MCF7 it was 48.6 µM (inactive). For the same molecule, the GI50 in the assay with SF-268 was 62.4 µM (inactive); in the assay on SK-OV-3, 28.2 µM (inactive); in the assay on NCI/ADR-RES, 26.4 µM (inactive); in the assay with HOP-92, > 100 µM (inactive); in the assay with Hs-578T, 72.8 µM (inactive); in the assay with IGROV-1 it was 16.2 µM (inactive). Also, the GI50 in the assay with NCI-H460 was 11.3 µM (inactive); in the assay on A549 it was > 100 µM (inactive); with KM12 it was 39.1 µM (inactive); in the assay on UACC-257, > 100 µM (inactive); with CAKI-1, 98.4 µM (inactive); in the assay on DU-145, 72.1 µM (inactive). Moreover, in the assay on MDA-N, the GI50 is 39.5 µM (inactive).

Consider `COc1ccc(NCc2cc(OC)c(OC)c(OC)c2)cc1`, for which the GI50 was 0.417 µM (active) in the assay with LOX IMVI; 0.291 µM (active) with COLO 205; 0.431 µM (active) in the assay with U-251; 0.265 µM (active) in the assay with SF-539; 0.716 µM (active) with OVCAR-8; 0.491 µM (active) in the assay on MCF7. For the same molecule, the GI50 in the assay on SF-268 was 0.698 µM (active); in the assay on SK-OV-3, 0.463 µM (active); in the assay with NCI/ADR-RES, 0.366 µM (active); with HOP-92, 1.39 µM (inactive); in the assay on Hs-578T, 0.641 µM (active); in the assay on IGROV-1, 0.582 µM (active). The GI50 in the assay with NCI-H460 was 0.385 µM (active); in the assay with A549, 0.597 µM (active); in the assay on KM12, 0.201 µM (active); in the assay on DU-145, 0.857 µM (active); with MDA-N, 0.0867 µM (active).
